Source: patent publication US7615555B2, “Piperidine derivatives as modulators of chemokine receptor CCR5” (AstraZeneca AB, priority 2004, dated 2009)
pIC50: −log10 of the molar value.

What was measured:
[1] = biological target: recombinant human CCR5 receptor (Homo sapiens, UniProt P51681); assay: in vitro radioligand binding assay: inhibition of MIP-1α binding; conditions: displacement of 0.1 nM iodinated MIP-1α; membranes from Chinese hamster ovary cells expressing recombinant human CCR5; scintillation proximity; average if tested more than once
recombinant human CCR5 receptor, sequence (P51681 whole entry): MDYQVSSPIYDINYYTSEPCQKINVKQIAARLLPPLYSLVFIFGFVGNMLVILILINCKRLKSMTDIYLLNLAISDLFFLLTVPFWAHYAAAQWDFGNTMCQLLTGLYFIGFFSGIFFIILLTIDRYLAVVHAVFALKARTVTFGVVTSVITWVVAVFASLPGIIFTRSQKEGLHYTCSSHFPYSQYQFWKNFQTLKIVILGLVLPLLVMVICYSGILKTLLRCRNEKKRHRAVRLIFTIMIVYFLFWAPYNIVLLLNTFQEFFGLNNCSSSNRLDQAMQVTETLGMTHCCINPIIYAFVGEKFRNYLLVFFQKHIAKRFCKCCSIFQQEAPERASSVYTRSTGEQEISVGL
Protocol: The ability of compounds to inhibit the binding of MIP-1α was assessed by an in vitro radioligand binding assay. Membranes were prepared from Chinese hamster ovary cells which expressed the recombinant human CCR5 receptor. These membranes were incubated with 0.1 nM iodinated MIP-1α, scintillation proximity beads and various concentrations of the compounds of the invention in 96-well plates. The amount of iodinated MIP-1α bound to the receptor was determined by scintillation counting. Competition curves were obtained for compounds and the concentration of compound which displaced 50% of bound iodinated MIP-1α was calculated (IC50).
In Table XII the results are presented as Pic50 values. A Pic50 value is the negative log (to base 10) of the IC50 result, so an IC50 of 1 μM (that is 1×10^−6M) gives a Pic50 of 6. If a compound was tested more than once then the data below is an average of the probative tests results.

| Compound | pIC50 [1] | melting point [°C] |
| --- | --- | --- |
| CCS(=O)(=O)N1CCN(C(CCN2CCC(n3cnc4cc(S(C)(=O)=O)ccc43)CC2)c2ccccc2)CC1 (stereo not shown) [Table I Compound 1, 1-(1-{3-[4-(ethylsulfonyl)piperazin-1-yl]-3-phenylpropyl}piperidin-4-yl)-5-(methylsulfonyl)-1H-benzimidazole] | 6.60 | – |
| Cc1nnc(C(C)C)n1C1CCN(CC[C@@H](c2ccccc2)N2CCN(S(=O)(=O)c3ccccc3)CC2)CC1 [Table II Compound 1, 1-{(1S)-3-[4-(3-isopropyl-5-methyl-4H-1,2,4-triazol-4-yl)piperidin-1-yl]-1-phenylpropyl}-4-(phenylsulfonyl)piperazine] | 7.50 | – |
| CS(=O)(=O)c1ccc2c(c1)ncn2C1CCN(CC[C@@H](c2cc(F)cc(F)c2)C2CCN(S(C)(=O)=O)CC2)CC1 [Table II Compound 5, 1-(1-{(3R)-3-(3,5-difluorophenyl)-3-[1-(methylsulfonyl)piperidin-4-yl]propyl}piperidin-4-yl)-5-(methylsulfonyl)-1H-benzimidazole] | 9.30 | 161 |
